Results from PubChem BioAssay (NCI).
“And” between values parts separate entries of the source, which are not always exact repeats. Equal values may be shown once.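 The compound was tested at five concentrations on cells cultured in 96-well plates, with a 48-hour exposure period. Abbreviation: GI50, concentration required for 50% inhibition of growth. TGI denotes the concentration required for complete inhibition of growth.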 Where a SMILES comes first, the peptide text is derived from it. [ ]: non-standard residue; d: D form. The star is where a group is joined. ξ: configuration not given here. ξD = NC(CC(=O)O)C(=O)O; Ac3c = NC1(C(=O)O)CC1; Boc = CC(C)(C)OC(=O)*; OBn = c1ccc(CO*)cc1

Legend:
Experiment in all cases: NCI-60 cell line screen, 48 h
[1] = tested on: HCC-2998 colon
[2] = tested on: UACC-257 melanoma
[3] = tested on: NCI-H460 lung
[4] = tested on: DU-145 prostate
[5] = tested on: MDA-MB-231 breast
[6] = tested on: T-47D breast
[7] = tested on: HOP-92 NSCLC
[8] = tested on: SK-MEL-28 melanoma
[9] = tested on: SF-268 CNS
[10] = tested on: NCI-H522 lung

SMILES | TGI [1] | TGI [2] | TGI [3] [µM] | TGI [4] [µM] | TGI [5] [µM] | TGI [6] [µM] | TGI [7] [µM] | TGI [8] | TGI [9] | TGI [10] [µM] | GI50 [2] [µM] | GI50 [8] [µM] | GI50 [1] [µM] | GI50 [3] [µM] | GI50 [4] [µM] | GI50 [9] [µM] | GI50 [10] [µM] | GI50 [5] [µM] | GI50 [6] [µM]
NC(c1ccccc1)(C(F)(F)F)P1(=O)OC(=O)c2ccccc2O1 (stereo not drawn) | > 100 µM | > 100 µM | > 100 | > 100 | > 100 | > 100 | 85 | > 100 µM | > 100 µM | – | – | – | – | – | – | – | – | – | –
O=C(c1ccccc1)c1c(C(F)(F)F)n([O-])c2cc(Cl)c(Cl)cc2[n+]1=O | 4.11 µM | 1.97 µM | 4.53 | 0.985 | – | 3.03 | 19.9 | 7.19 µM | 1.41 µM | 1.08 | – | – | – | – | – | – | – | – | –
O=C1CCCC2=C1C(c1ccc3c(c1)OCO3)Nc1ccc3ccccc3c12 (stereo not drawn) | > 100 µM | > 100 µM | > 100 | > 100 | > 100 | – | – | > 100 µM | > 100 µM | > 100 | – | – | – | – | – | – | – | – | –
CC(C)[C@H]1NC(=O)[C@H]2N=C(O[C@@H]2C)[C@@H]2CCCN2C(=O)[C@H](Cc2ccccc2)NC(=O)[C@@H]2CSC(=N2)[C@@H](Cc2ccccc2)NC(=O)[C@@H]2CSC1=N2 | > 100 µM | > 100 µM | – | > 100 | > 100 | > 100 | – | > 100 µM | > 100 µM | > 100 | – | – | – | – | – | – | – | – | –
CC(=O)OCc1cc(=O)n(C)c2c3c4c(cc12)c(C)cc(=O)n4CO3 | 4.61 µM | 5.42 µM | 5.74 | – | – | – | 10 | 3.42 µM | 7.21 µM | 2.16 | – | – | – | – | – | – | – | – | –
O=c1[nH]c(=O)n(COCc2ccccc2)c2ccc([N+](=O)[O-])cc12 | > 100 µM | > 100 µM | – | > 100 | > 100 | – | > 100 | > 100 µM | – | – | – | – | – | – | – | – | – | – | –
N/N=C1/C(=N/O)CCc2nonc21 | > 100 µM | > 100 µM | > 100 | > 100 | > 100 | > 100 | > 100 | > 100 µM | > 100 µM | – | – | – | – | – | – | – | – | – | –
O=C(CN1CCCCC1)c1ccc2c(c1)Sc1ccccc1O2 | 37 µM | 39.6 µM | 29.5 | 49.3 | 37.2 | 47.9 | 28 | 37.8 µM | 33.9 µM | – | – | – | – | – | – | – | – | – | –
COC(=O)C1(NC(=O)C(CC(=O)OCc2ccccc2)NC(=O)OC(C)(C)C)CC1 (stereo not drawn) (Boc-[ξD](OBn)-[Ac3c]-OMe) | – | > 100 µM | > 100 | > 100 | > 100 | > 100 | > 100 | > 100 µM | > 100 µM | > 100 | – | – | – | – | – | – | – | – | –
CN(C)CCCNc1c2ccccc2nc2cccc([N+](=O)[O-])c12 | 0.00194 µM and 0.0131 µM | 0.00749 µM and 0.0452 µM | 0.00781 | 0.0131 | 0.00712 | – | 0.00435 | 0.00689 µM and 0.0422 µM | 0.00943 µM and 0.0426 µM | < 0.001 | 0.0207 | 0.0202 | – | – | – | – | – | – | –
CC(=NCCN(CCN=C(C)c1c(O)cc(C)oc1=O)CCN=C(C)c1c(O)cc(C)oc1=O)c1c(O)cc(C)oc1=O | > 100 µM | > 100 µM | > 100 | – | > 100 | > 100 | – | > 100 µM | > 100 µM | > 100 | – | – | – | – | – | – | – | – | –
CSc1nc(NC2OCC(O)C(O)C2O)c(N)c(=O)n1C (stereo not drawn) | > 100 µM | > 100 µM | > 100 | – | – | – | > 100 | > 100 µM | > 100 µM | > 100 | – | – | – | – | – | – | – | – | –
C[C@H](CC[C@@H](O)C(C)(C)O)[C@H]1CC[C@@]2(C)[C@@H]3CC=C4[C@@H](CC[C@H](O)C4(C)C)[C@]3(C)C(=O)C[C@]12C | – | > 50 µM | > 50 | > 50 | > 50 | – | – | > 50 µM | – | > 50 | – | – | – | – | – | – | – | – | –
CC(=Nc1c2ccccc2nc2ccccc12)N(C)C | – | 43.5 µM | – | > 100 | 30.4 | 54.5 | 37.2 | 61.5 µM | > 100 µM | 25.5 | – | – | – | – | – | – | – | – | –
Fc1ccc(C2CC(c3cccc(Nc4ccncc4)c3)=NN2c2cc(Cl)cc(Cl)c2)cc1 (stereo not drawn) | 2.96 µM | – | 3.55 | 3.32 | – | – | – | 3.31 µM | 3.4 µM | 3.9 | – | 1.74 | 1.6 | 1.87 | 1.85 | 1.72 | 1.88 | – | –
Nc1ccccc1NC(=O)CCCCCCC(=O)Nc1ccc2c(c1)/C(=C/c1ccc[nH]1)C(=O)N2 | > 100 µM | > 100 µM | > 100 | > 100 | > 100 | > 100 | – | > 100 µM | > 100 µM | > 100 | > 100 | > 100 | > 100 | 22.4 | 7.06 | 6.64 | 2.78 | > 100 | 3.67
C1#Cc2ccccc2OCCOc2ccccc2C#Cc2ccccc2OCCOc2ccccc21 | – | > 100 µM | > 100 | > 100 | 54.9 | > 100 | – | > 100 µM | 46.3 µM | 49.8 | – | – | – | – | – | – | – | – | –
O=c1[nH]c2ccccc2nc1/C=C(\O)C(F)F | > 100 µM | > 100 µM | > 100 | > 100 | > 100 | – | – | > 100 µM | > 100 µM | > 100 | – | – | – | – | – | – | – | – | –
O=c1[nH]c(=O)n(COCc2ccccc2)c2ccc(Br)cc12 | – | > 100 µM | > 100 | > 100 | > 100 | – | > 100 | > 100 µM | – | – | – | – | – | – | – | – | – | – | –
O=C(NC1(C(=O)NNc2nnc(-c3ccccc3)c(-c3ccccc3)n2)C(c2ccccc2)C(c2ccccc2)=NN1c1ccccc1)c1ccccc1 (stereo not drawn) | > 100 µM | > 100 µM | > 100 | > 100 | > 100 | > 100 | > 100 | – | > 100 µM | > 100 | – | – | – | – | – | – | – | – | –
CCOP(=O)(OCC)/C(=C\N1C(=O)CC(=O)NC1=S)C(=O)OC | > 100 µM | > 100 µM | > 100 | > 100 | > 100 | > 100 | > 100 | > 100 µM | > 100 µM | – | – | – | – | – | – | – | – | – | –
COc1ccc(Oc2nc3ccc(C(F)(F)F)cc3nc2-c2ccccc2)cc1 | > 100 µM | > 100 µM | > 100 | > 100 | > 100 | – | > 100 | > 100 µM | > 100 µM | > 100 | – | – | – | – | – | – | – | – | –
